Data as given in EP3800188A1, “SUBSTITUTED PYRAZOLOPYRIMIDINES AS IRAK4 INHIBITORS” (Bayer AG, priority 2019, dated 2021).

Molecular target: T1, human IRAK4 (Homo sapiens, UniProt Q9NWZ3)
T1 construct: GST (N); made in house; host or cells: baculovirus-infected Hi5 (BTI-TN-5B1-4) insect cells
T1 sequence (Q9NWZ3 1-460): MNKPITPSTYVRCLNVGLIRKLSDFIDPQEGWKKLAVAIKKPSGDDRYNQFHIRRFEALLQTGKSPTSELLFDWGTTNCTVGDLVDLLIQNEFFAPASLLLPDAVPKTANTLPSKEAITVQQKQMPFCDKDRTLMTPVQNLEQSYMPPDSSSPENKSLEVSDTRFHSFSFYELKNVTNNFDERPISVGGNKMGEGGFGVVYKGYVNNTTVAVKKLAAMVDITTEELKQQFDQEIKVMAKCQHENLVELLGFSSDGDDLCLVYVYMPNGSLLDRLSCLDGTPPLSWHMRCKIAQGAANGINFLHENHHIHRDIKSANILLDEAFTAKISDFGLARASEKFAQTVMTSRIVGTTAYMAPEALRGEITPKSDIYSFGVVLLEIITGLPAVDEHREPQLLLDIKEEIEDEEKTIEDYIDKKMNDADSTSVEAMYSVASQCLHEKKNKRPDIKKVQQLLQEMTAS
Test: Human IRAK4 kinase activity inhibition assay (IRAK4 TR-FRET assay)
Type: biochemical
Settings: 1 mM ATP, GST-human IRAK4, average or median values
How it was run: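 Signal was the 665/620 nm emission ratio from a europium anti-mouse-IgG, anti-phosphoserine antibody and streptavidin-XL665 complex formed over 1 h at 22°C. It was scaled between no-enzyme (100%) and no-compound (0%) wells. Beforehand, compounds (20 µM down to 0.073 nM, 11 points) sat 15 min with roughly 0.2 nM insect-cell-expressed GST-human IRAK4 before phosphorylation of a biotinylated peptide substrate.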

SMILES | IC50
O=S1(=O)CCN(C2CN(c3nc(N[C@H]4CCOC4)nc4c3cnn4-c3cccc(C(F)(F)F)c3)C2)CC1 [Example I-26-2, 4-[3-(1,1-dioxidothiomorpholin-4-yl)azetidin-1-yl]-N-[(3S)-tetrahydrofuran-3-yl]-1-[3-(trifluoromethyl)phenyl]-1H-pyrazolo[3,4-d]pyrimidin-6-amine] | 57.8 nM
C[C@@]1(O)CCN(c2nc(N[C@H]3C[C@H](O)C3)nc3c2cnn3-c2cccc(C(F)(F)F)c2)C1 [Example I-102, (3R)-1-(6-{[(1r,3R)-3-hydroxycyclobutyl]amino}-1-[3-(trifluoromethyl)phenyl]-1H-pyrazolo[3,4-d]pyrimidin-4-yl)-3-methylpyrrolidin-3-ol] | 49.9 nM
O=C(O)CC1CN(c2nc(N[C@@H]3CNC(=O)C3)nc3c2cnn3-c2cccc(C(F)(F)F)c2)C1 [Example I-50, [1-(6-{[(3S)-5-oxopyrrolidin-3-yl]amino}-1-[3-(trifluoromethyl)phenyl]-1H-pyrazolo[3,4-d]pyrimidin-4-yl)azetidin-3-yl]acetic acid] | 48.4 nM
O=S1(=O)CC[C@H](Nc2nc(N3CCC(N4CCOCC4)CC3)c3cnn(-c4cccc(C(F)(F)F)c4)c3n2)C1 [Example I-33, N-[(3S)-1,1-dioxidotetrahydrothiophen-3-yl]-4-[4-(morpholin-4-yl)piperidin-1-yl]-1-[3-(trifluoromethyl)phenyl]-1H-pyrazolo[3,4-d]pyrimidin-6-amine] | 84.2 nM
O[C@H]1CN(c2nc(N[C@H]3C[C@@H](O)C3)nc3c2cnn3-c2cccc(C(F)(F)F)c2)C[C@@H]1F [Example I-97, (3S,4S)-4-fluoro-1-(6-{[(1s,3R)-3-hydroxycyclobutyl]amino}-1-[3-(trifluoromethyl)-phenyl]-1H-pyrazolo[3,4-d]pyrimidin-4-yl)pyrrolidin-3-ol] | 8.16 nM
O=C1C[C@H](Nc2nc(N3CC[C@@H](N4CCOCC4)C3)c3cnn(-c4cccc(C(F)(F)F)c4)c3n2)CN1 [Example I-21, (4S)-4-({4-[(3R)-3-(morpholin-4-yl)pyrrolidin-1-yl]-1-[3-(trifluoromethyl)phenyl]-1H-pyrazolo[3,4-d]pyrimidin-6-yl}amino)pyrrolidin-2-one] | 78 nM
CS(=O)(=O)[C@H]1C[C@H](Nc2nc(N3C[C@H](O)[C@@H](F)C3)c3cnn(-c4cccc(OC(F)F)c4)c3n2)C1 [IV-5, (3S,4S)-1-(1-[3-(difluoromethoxy)phenyl]-6-{[trans-3-(methylsulfonyl)cyclobutyl]amino}-1H-pyrazolo[3,4-d]pyrimidin-4-yl)-4-fluoropyrrolidin-3-ol] | 11.2 nM
C[C@]1(O)C[C@H](Nc2nc(N3CC(N4CC(F)C4)C3)c3cnn(-c4cccc(C(F)(F)F)c4)c3n2)C1 [Example I-120, trans-3-({4-(3-fluoro[1,3'-biazetidin]-1'-yl)-1-[3-(trifluoromethyl)phenyl]-1H-pyrazolo[3,4-d]pyrimidin-6-yl}amino)-1-methylcyclobutanol] | 16.6 nM
CN1CC[C@@H](Nc2nc(N3CCC(C(C)(C)O)CC3)c3cnn(-c4cccc(C(F)(F)F)c4)c3n2)C1=O [Example I-9, (3R)-3-({4-[4-(2-hydroxypropan-2-yl)piperidin-1-yl]-1-[3-(trifluoromethyl)phenyl]-1H-pyrazolo[3,4-d]pyrimidin-6-yl}amino)-1-methylpyrrolidin-2-one] | 59.5 nM
CC1(Nc2nc(N3CC(N4CCOCC4)C3)c3cnn(-c4cccc(C(F)(F)F)c4)c3n2)CCS(=O)(=O)C1 (stereo not shown) [Example I-43, N-(3-methyl-1,1-dioxidotetrahydrothiophen-3-yl)-4-[3-(morpholin-4-yl)azetidin-1-yl]-1-[3-(trifluoromethyl)phenyl]-1H-pyrazolo[3,4-d]pyrimidin-6-amine] | 280 nM
CC(C)(O)C1CCN(c2nc(N[C@H]3CCNC3=O)nc3c2cnn3-c2cccc(C(F)(F)F)c2)CC1 [Example I-12, (3S)-3-({4-[4-(2-hydroxypropan-2-yl)piperidin-1-yl]-1-[3-(trifluoromethyl)phenyl]-1H-pyrazolo[3,4-d]pyrimidin-6-yl}amino)pyrrolidin-2-one] | 51.2 nM
O=S1(=O)CCC(Nc2nc(N3C[C@H](O)[C@@H](F)C3)c3cnn(-c4cccc(OC(F)F)c4)c3n2)CC1 [IV-7, (3S,4S)-1-{1-[3-(difluoromethoxy)phenyl]-6-[(1,1-dioxidotetrahydro-2H-thiopyran-4-yl)amino]-1H-pyrazolo[3,4-d]pyrimidin-4-yl}-4-fluoropyrrolidin-3-ol] | 46.4 nM
CN(C)C1(C)CN(c2nc(NC3CCS(=O)(=O)CC3)nc3c2cnn3-c2cccc(C(F)(F)F)c2)C1 [Example I-39, 4-[3-(dimethylamino)-3-methylazetidin-1-yl]-N-(1,1-dioxidotetrahydro-2H-thiopyran-4-yl)-1-[3-(trifluoromethyl)phenyl]-1H-pyrazolo[3,4-d]pyrimidin-6-amine] | 24.5 nM
CCS(=O)(=O)[C@H]1C[C@H](Nc2nc(N3C[C@@H](O)[C@H](F)C3)c3cnn(-c4cccc(C(F)(F)F)c4)c3n2)C1 [Example I-87, (3R,4R)-1-(6-{[(1r,3R)-3-(ethylsulfonyl)cyclobutyl]amino}-1-[3-(trifluoromethyl)phenyl]-1H-pyrazolo[3,4-d]pyrimidin-4-yl)-4-fluoropyrrolidin-3-ol] | 7.87 nM
O=C1C[C@H](Nc2nc(N3CC(O)C3)c3cnn(-c4cccc(C(F)(F)F)c4)c3n2)CN1 [Example I-32, (4S)-4-({4-(3-hydroxyazetidin-1-yl)-1-[3-(trifluoromethyl)phenyl]-1H-pyrazolo[3,4-d]pyrimidin-6-yl}amino)pyrrolidin-2-one] | 28.7 nM

Further lines, results first:

IC50 | SMILES
18.4 nM | CCC1(O)CN(c2nc(N[C@H]3CCN(C)C3)nc3c2cnn3-c2cccc(C(F)(F)F)c2)C1 [Example I-18, 3-ethyl-1-(6-{[(3S)-1-methylpyrrolidin-3-yl]amino}-1-[3-(trifluoromethyl)phenyl]-1H-pyrazolo[3,4-d]pyrimidin-4-yl)azetidin-3-ol]
73.6 nM | CC(C)(C(=O)O)C1CN(c2nc(NC3CCS(=O)(=O)CC3)nc3c2cnn3-c2cccc(C(F)F)c2)C1 [II-26, 2-(1-{1-[3-(difluoromethyl)phenyl]-6-[(1,1-dioxidotetrahydro-2H-thiopyran-4-yl)amino]-1H-pyrazolo[3,4-d]pyrimidin-4-yl}azetidin-3-yl)-2-methylpropanoic acid]
15.6 nM | CS(=O)(=O)[C@H]1C[C@@H](Nc2nc(N3CC(N4CCOCC4)C3)c3cnn(-c4cccc(C(F)(F)F)c4)c3n2)C1 [Example I-55, N-[cis-3-(methylsulfonyl)cyclobutyl]-4-[3-(morpholin-4-yl)azetidin-1-yl]-1-[3-(trifluoromethyl)phenyl]-1H-pyrazolo[3,4-d]pyrimidin-6-amine]
179 nM | CCC1(O)CN(c2nc(N[C@@H]3CCOC3)nc3c2cnn3-c2cccc(S(C)(=O)=O)c2)C1 [Example V-2, 3-ethyl-1-{1-[3-(methylsulfonyl)phenyl]-6-[(3R)-tetrahydrofuran-3-ylamino]-1H-pyrazolo[3,4-d]pyrimidin-4-yl}azetidin-3-ol]
83.2 nM | CCS(=O)(=O)N1CC(Nc2nc(N3CC(N4CCOCC4)C3)c3cnn(-c4cccc(C(F)(F)F)c4)c3n2)C1 [Example I-81, N-[1-(ethylsulfonyl)azetidin-3-yl]-4-[3-(morpholin-4-yl)azetidin-1-yl]-1-[3-(trifluoromethyl)phenyl]-1H-pyrazolo[3,4-d]pyrimidin-6-amine]
15.7 nM | CN(C)C1CN(c2nc(N[C@@H]3CNC(=O)C3)nc3c2cnn3-c2cccc(C(F)(F)F)c2)C1 [Example I-44, (4S)-4-({4-[3-(dimethylamino)azetidin-1-yl]-1-[3-(trifluoromethyl)phenyl]-1H-pyrazolo-[3,4-d]pyrimidin-6-yl}amino)pyrrolidin-2-one]
13.3 nM | CS(=O)(=O)N1CC(Nc2nc(N3CC(N4CCOCC4)C3)c3cnn(-c4cccc(C(F)F)c4)c3n2)C1 [II-13, 1-[3-(difluoromethyl)phenyl]-N-[1-(methylsulfonyl)azetidin-3-yl]-4-[3-(morpholin-4-yl)azetidin-1-yl]-1H-pyrazolo[3,4-d]pyrimidin-6-amine]
27 nM | CCC1(O)CN(c2nc(NC3CCS(=O)(=O)CC3)nc3c2cnn3-c2cccc(C(F)(F)F)c2)C1 [Example I-19, 1-{6-[(1,1-dioxidotetrahydro-2H-thiopyran-4-yl)amino]-1-[3-(trifluoromethyl)phenyl]-1H-pyrazolo[3,4-d]pyrimidin-4-yl}-3-ethlazetidin-3-ol]
22.5 nM | C[C@]1(O)CCN(c2nc(N[C@H]3C[C@@H](O)C3)nc3c2cnn3-c2cccc(C(F)(F)F)c2)C1 [Example I-124, (3S)-1-(6-{[(1s,3R)-3-hydroxycyclobutyl]amino}-1-[3-(trifluoromethyl)phenyl]-1H-pyrazolo[3,4-d]pyrimidin-4-yl)-3-methylpyrrolidin-3-ol]
11.4 nM | CC(C)(O)C1CCN(c2nc(N[C@@H]3CCC(=O)NC3)nc3c2cnn3-c2cccc(C(F)(F)F)c2)CC1 [Example I-7-1, (5R)-5-({4-[4-(2-hydroxypropan-2-yl)piperidin-1-yl]-1-[3-(trifluoromethyl)phenyl]-1H-pyrazolo[3,4-d]pyrimidin-6-yl}amino)piperidin-2-one]
